Experimental data reported in PMC7725459 (Science Advances, 2020).

Experiments:
[1] = target: T1, SARS-CoV-2 M^pro (Severe acute respiratory syndrome coronavirus 2, UniProt P0DTD1); test: Binding to SARS-CoV-2 M^pro using native mass spectrometry; settings: 10 μM ligand, 4 mM DTT
[2] = target: T1, SARS-CoV-2 M^pro; format: biochemical; settings: versus GC-376
[3] = target: SARS-CoV-2 HM-M^pro (Severe acute respiratory syndrome coronavirus 2, UniProt P0DTD1); format: binding

## CC(C)C[C@H](NC(=O)OCc1ccccc1)C(=O)N[C@@H](CC(C)C)C(=O)N[C@@H](CC1CCNC1=O)C(=O)C(=O)NC1CC1 (stereo partly drawn) [UAWJ248]
[1]
  binding to M^pro by native mass spectrometry: confirmed
[2]
  fold more potent than GC-376 (k2/KI): 3.2 fold
[3]
  ΔTm shift, HM-M^pro construct: 10.01 °C
